Assay results taken from US10766902B2, “Wee-1 inhibiting pyrazolopyrimidinone compounds” (ALMAC DISCOVERY LIMITED, priority 2016, dated 2020).

Tests used:
A498 cells = assay: Cell viability (CellTiter-Glo), A498; type: cell-based; settings: Homo sapiens, A498, 144 h; cell viability after 6 days
Method: All cell lines (HT29, A427, A498, SKLU-1) were obtained from the American Type Culture Collection (ATCC), maintained in the recommended media supplemented with 10% (v/v) FBS, 1% (v/v) Penicillin/streptomycin and kept at 37° C. in a humidified atmosphere with 5% CO2. Cells were seeded in 96 wp format typically at a seeding density of 3500-5000 cells/well and treated after 24 hours with increasing concentration of compound from 0 to 100 μM in ½ log unit increments. Cell viability was assessed after 72 hours (HT29, A427) or after 6 days (SKLU-1, A498) by CellTiter-Glo® as recommended by the manufacturer's instructions (Promega). Analysis and EC50 values were derived using GraphPadPrism.

AKT1 (PKB alpha) = AKT1 (PKB alpha) (Homo sapiens (Human), UniProt P31749); assay: SelectScreen Kinase Profiling: AKT1 (PKB alpha); type: biochemical; settings: tested at 300-350 nM
Sequence of AKT1 (PKB alpha) (P31749 whole entry): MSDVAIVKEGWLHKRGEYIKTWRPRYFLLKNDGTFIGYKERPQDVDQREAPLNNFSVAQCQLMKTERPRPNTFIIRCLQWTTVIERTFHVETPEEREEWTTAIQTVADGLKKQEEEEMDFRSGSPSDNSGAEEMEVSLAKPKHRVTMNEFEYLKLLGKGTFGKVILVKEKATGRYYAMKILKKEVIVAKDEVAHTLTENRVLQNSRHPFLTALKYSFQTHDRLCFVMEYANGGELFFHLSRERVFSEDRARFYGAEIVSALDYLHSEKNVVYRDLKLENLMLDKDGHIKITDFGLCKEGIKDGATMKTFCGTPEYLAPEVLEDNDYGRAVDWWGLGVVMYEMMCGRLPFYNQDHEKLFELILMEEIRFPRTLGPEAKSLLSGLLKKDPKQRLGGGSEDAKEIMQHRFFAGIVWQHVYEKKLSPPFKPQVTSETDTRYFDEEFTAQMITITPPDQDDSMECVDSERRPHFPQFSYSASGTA
Text: (§1) Table 4 below highlights the selectivity of a representative compound of the invention, Example 5, against a panel of 50 kinases (assessed using the Invitrogen SelectScreen® Kinase Profiling Service).

CDK1/cyclin B = CDK1/cyclin B (Homo sapiens (Human), UniProt P06493); assay: SelectScreen Kinase Profiling: CDK1/cyclin B; type: biochemical; settings: tested at 300-350 nM
Text: as §1

DYRK3 = DYRK3 (Homo sapiens (Human), UniProt O43781); assay: SelectScreen Kinase Profiling: DYRK3; type: biochemical; settings: tested at 300-350 nM
Text: as §1

FRAP1 (mTOR) = FRAP1 (mTOR) (Homo sapiens (Human), UniProt P42345); assay: SelectScreen Kinase Profiling: FRAP1 (mTOR); type: biochemical; settings: tested at 300-350 nM
Text: as §1

IGF1R = IGF1R (Homo sapiens (Human), UniProt P08069); assay: SelectScreen Kinase Profiling: IGF1R; type: biochemical; settings: tested at 300-350 nM
Sequence of IGF1R (P08069 31-1367): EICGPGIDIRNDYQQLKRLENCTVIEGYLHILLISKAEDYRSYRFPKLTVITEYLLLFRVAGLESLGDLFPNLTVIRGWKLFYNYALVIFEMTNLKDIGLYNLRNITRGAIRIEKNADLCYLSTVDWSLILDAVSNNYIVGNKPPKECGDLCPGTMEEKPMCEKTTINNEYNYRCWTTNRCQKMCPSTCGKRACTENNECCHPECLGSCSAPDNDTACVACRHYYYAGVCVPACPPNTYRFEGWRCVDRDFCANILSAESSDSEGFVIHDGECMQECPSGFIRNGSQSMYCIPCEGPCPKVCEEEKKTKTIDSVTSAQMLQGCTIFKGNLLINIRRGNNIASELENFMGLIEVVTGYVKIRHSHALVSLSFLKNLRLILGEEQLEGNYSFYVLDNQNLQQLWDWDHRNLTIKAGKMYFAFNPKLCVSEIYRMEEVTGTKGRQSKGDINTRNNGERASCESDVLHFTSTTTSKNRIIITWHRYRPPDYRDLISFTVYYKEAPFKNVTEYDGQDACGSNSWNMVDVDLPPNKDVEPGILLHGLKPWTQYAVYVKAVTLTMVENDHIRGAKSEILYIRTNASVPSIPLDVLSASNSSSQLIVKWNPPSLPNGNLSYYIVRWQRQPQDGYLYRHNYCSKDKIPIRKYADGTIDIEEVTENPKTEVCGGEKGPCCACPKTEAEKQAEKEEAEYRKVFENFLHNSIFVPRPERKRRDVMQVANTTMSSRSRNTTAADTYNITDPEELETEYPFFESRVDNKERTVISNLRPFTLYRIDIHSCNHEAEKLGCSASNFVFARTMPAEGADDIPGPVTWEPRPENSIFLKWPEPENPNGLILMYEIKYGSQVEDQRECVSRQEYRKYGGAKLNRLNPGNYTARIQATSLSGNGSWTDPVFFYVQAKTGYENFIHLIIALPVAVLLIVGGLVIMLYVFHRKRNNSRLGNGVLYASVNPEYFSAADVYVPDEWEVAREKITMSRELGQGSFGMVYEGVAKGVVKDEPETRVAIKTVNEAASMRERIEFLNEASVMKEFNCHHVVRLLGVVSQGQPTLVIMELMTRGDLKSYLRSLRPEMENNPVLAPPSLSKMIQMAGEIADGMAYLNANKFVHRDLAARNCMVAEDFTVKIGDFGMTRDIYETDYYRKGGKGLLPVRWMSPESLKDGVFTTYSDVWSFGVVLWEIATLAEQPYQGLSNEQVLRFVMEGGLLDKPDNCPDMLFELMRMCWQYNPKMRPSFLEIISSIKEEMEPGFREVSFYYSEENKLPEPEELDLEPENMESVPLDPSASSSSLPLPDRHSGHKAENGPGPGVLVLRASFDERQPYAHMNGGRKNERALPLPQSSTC
Text: as §1

IKBKB (IKK beta) = IKBKB (IKK beta) (Homo sapiens (Human), UniProt O14920); assay: SelectScreen Kinase Profiling: IKBKB (IKK beta); type: biochemical; settings: tested at 300-350 nM
Text: as §1

MAPK8 (JNK1) = MAPK8 (JNK1) (Homo sapiens (Human), UniProt P45983); assay: SelectScreen Kinase Profiling: MAPK8 (JNK1); type: biochemical; settings: tested at 300-350 nM
Sequence of MAPK8 (JNK1) (P45983 whole entry): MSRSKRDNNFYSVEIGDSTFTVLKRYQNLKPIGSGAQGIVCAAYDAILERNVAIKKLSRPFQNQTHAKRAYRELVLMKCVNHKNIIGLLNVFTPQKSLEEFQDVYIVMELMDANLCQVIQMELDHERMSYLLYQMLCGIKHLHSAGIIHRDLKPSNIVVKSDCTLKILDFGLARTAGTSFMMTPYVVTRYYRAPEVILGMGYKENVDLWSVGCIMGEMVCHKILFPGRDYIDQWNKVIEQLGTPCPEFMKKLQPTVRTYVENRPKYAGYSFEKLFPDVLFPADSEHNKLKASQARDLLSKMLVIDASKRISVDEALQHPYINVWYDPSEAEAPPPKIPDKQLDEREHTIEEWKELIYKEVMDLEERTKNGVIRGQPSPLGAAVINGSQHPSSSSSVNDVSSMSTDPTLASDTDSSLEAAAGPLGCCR
Text: as §1

MAPKAPK2 = MAPKAPK2 (Homo sapiens (Human), UniProt P49137); assay: SelectScreen Kinase Profiling: MAPKAPK2; type: biochemical; settings: tested at 300-350 nM
Text: as §1

NEK1 = NEK1 (Homo sapiens (Human), UniProt Q96PY6); assay: SelectScreen Kinase Profiling: NEK1; type: biochemical; settings: tested at 300-350 nM
Sequence of NEK1 (Q96PY6 whole entry): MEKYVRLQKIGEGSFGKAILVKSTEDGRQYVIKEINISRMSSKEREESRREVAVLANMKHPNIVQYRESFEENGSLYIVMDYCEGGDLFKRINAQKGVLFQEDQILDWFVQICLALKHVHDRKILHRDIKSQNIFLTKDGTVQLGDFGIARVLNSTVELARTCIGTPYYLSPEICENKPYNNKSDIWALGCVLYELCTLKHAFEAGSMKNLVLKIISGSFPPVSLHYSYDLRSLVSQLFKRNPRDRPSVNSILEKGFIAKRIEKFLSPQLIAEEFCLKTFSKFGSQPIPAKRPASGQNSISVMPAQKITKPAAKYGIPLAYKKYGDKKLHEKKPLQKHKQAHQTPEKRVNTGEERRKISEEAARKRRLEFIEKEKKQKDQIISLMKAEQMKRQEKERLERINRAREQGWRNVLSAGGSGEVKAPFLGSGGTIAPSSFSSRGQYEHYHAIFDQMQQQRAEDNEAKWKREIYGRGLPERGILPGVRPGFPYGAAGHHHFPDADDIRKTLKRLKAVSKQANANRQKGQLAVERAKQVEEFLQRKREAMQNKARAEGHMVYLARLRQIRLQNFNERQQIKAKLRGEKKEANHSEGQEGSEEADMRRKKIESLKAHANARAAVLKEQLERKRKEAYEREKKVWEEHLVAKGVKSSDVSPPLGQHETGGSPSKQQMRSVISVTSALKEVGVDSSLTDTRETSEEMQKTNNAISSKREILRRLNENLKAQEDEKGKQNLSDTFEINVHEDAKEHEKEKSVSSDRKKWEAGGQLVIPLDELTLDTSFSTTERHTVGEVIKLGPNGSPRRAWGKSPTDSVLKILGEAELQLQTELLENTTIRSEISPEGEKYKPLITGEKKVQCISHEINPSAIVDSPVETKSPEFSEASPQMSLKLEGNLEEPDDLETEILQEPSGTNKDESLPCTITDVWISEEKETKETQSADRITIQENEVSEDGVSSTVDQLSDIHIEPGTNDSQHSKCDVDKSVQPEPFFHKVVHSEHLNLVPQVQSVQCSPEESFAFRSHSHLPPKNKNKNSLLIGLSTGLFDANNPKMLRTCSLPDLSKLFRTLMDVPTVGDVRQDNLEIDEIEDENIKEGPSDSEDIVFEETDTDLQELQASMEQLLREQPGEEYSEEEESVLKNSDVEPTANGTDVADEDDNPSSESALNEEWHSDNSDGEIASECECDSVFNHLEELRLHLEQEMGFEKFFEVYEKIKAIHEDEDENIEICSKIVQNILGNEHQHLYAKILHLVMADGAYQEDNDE
Text: as §1

PIM1 = PIM1 (Homo sapiens (Human), UniProt P11309); assay: SelectScreen Kinase Profiling: PIM1; type: biochemical; settings: tested at 300-350 nM
Sequence of PIM1 (P11309 whole entry): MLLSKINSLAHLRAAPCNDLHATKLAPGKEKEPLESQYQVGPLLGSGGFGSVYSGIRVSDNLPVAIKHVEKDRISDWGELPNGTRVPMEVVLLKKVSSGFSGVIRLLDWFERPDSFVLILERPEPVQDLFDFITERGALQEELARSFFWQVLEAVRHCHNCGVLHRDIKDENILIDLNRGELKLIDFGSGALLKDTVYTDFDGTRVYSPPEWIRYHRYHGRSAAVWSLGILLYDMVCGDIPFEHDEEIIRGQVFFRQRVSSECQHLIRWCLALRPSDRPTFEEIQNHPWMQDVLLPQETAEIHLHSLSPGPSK
Text: as §1

PRKACA (PKA) = PRKACA (PKA) (Homo sapiens (Human), UniProt P17612); assay: SelectScreen Kinase Profiling: PRKACA (PKA); type: biochemical; settings: tested at 300-350 nM
Text: as §1

TEK (Tie2) = TEK (Tie2) (Homo sapiens (Human), UniProt Q02763); assay: SelectScreen Kinase Profiling: TEK (Tie2); type: biochemical; settings: tested at 300-350 nM
Sequence of TEK (Tie2) (Q02763 23-1124): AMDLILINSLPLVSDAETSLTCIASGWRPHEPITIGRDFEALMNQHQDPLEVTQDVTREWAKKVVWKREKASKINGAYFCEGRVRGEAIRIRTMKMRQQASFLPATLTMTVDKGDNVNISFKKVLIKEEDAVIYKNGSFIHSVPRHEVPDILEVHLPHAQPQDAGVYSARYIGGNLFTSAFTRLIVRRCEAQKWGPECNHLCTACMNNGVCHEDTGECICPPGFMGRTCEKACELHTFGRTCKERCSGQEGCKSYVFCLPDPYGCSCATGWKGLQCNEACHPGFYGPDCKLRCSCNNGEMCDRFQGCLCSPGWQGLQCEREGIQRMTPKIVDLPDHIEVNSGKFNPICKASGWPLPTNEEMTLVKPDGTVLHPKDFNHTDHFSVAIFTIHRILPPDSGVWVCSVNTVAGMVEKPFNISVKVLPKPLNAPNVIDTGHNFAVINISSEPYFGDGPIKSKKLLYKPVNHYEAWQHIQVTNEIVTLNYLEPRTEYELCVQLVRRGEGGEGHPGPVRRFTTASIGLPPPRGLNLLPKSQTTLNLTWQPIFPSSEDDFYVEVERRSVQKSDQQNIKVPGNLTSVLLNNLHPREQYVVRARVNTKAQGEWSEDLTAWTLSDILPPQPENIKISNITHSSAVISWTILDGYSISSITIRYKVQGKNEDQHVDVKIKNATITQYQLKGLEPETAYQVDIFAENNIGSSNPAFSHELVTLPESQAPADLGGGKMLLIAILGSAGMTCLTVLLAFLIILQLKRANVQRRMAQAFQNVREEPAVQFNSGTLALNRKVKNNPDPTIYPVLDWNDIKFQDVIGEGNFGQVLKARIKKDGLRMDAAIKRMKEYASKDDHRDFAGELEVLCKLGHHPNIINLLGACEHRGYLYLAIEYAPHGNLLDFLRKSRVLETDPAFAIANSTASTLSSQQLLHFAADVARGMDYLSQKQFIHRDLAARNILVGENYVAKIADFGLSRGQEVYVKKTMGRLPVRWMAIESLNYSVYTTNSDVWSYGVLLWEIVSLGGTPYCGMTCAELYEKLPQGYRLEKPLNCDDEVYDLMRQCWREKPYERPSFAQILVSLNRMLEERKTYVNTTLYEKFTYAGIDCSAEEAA
Text: as §1

## C=CCn1c(=O)c2cnc(Nc3ccc(N4CCN(C)CC4)cc3)nc2n1-c1cccc(N=S(C)(C)=O)n1 [Example 5, 1-(6-{[Dimethyl(oxo)-λ^6-sulfanylidene]amino}pyridine-2-yl)-6-{[4-(4-methylpiperazin-1-yl)phenyl]amino}-2-(prop-2-en-1-yl)-1H,2H,3H-pyrazolo[3,4-d]pyrimidin-3-one]
A498 cells
  EC50: 0.025 µM
AKT1 (PKB alpha)
  inhibition of AKT1 (PKB alpha): − (inhibition under 50% (tested at 300-350 nM))
CDK1/cyclin B
  inhibition of CDK1/cyclin B: − (inhibition under 50% (tested at 300-350 nM))
DYRK3
  inhibition of DYRK3: − (inhibition under 50% (tested at 300-350 nM))
FRAP1 (mTOR)
  inhibition of FRAP1 (mTOR): − (inhibition under 50% (tested at 300-350 nM))
IGF1R
  inhibition of IGF1R: − (inhibition under 50% (tested at 300-350 nM))
IKBKB (IKK beta)
  inhibition of IKBKB (IKK beta): − (inhibition under 50% (tested at 300-350 nM))
MAPK8 (JNK1)
  inhibition of MAPK8 (JNK1): − (inhibition under 50% (tested at 300-350 nM))
MAPKAPK2
  inhibition of MAPKAPK2: − (inhibition under 50% (tested at 300-350 nM))
NEK1
  inhibition of NEK1: − (inhibition under 50% (tested at 300-350 nM))
PIM1
  inhibition of PIM1: − (inhibition under 50% (tested at 300-350 nM))
PRKACA (PKA)
  inhibition of PRKACA (PKA): − (inhibition under 50% (tested at 300-350 nM))
TEK (Tie2)
  inhibition of TEK (Tie2): − (inhibition under 50% (tested at 300-350 nM))
